We go through two compounds from patent US20230128114A1, “METHODS AND COMPOSITIONS FOR TREATING OR PREVENTING AN INFLAMMATORY CONDITION” (priority 2020, published 2023).

In data set [1] the test system is LPS-induced pulmonary inflammation. As to the kind of experiment: LPS-induced pulmonary inflammation: BALF cytokines, synergy analysis. It is filed as in vivo, C57BL/B6 mice. The conditions noted are these: HCQ 25 mg/kg, alone or combined, observed; for IL-1β, relative inhibition of cytokine release (BALF) / MCP-1, relative inhibition of cytokine release (BALF) / TNF-α, relative inhibition of cytokine release (BALF): CBD 1 mg/kg; for CXCL-1, relative inhibition of cytokine release (BALF): CBD 10 mg/kg. Here is the method:
Male C57BL/B6 mice weighing 10-20 g were used. Vehicle and active agents (i.e., CBD and hydroxychloroquine) alone or in combination were administered intraperitoneally (IP) at 1 hour before LPS (˜80 mg/kg) was administered intratracheally. 24 hours after LPS injection, mice were anaesthetized with pentoparbital and 0.5 mL of PBS was administered twice through a tracheal cannula after which approximately 0.6 mL of broncheoalveolar lavage fluid (BALF) was obtained. The BALF was assayed for IL-1β, TNF-α, MCP-1(MCAF) and CXCL-1 by Luminex. ANOVA followed by Dunnett's test was applied for comparison between vehicle and treatment groups. p<0.05 was considered significant.
For synergy analysis, data were baseline subtracted using the cytokine levels of sham treated mice (i.e., no LPS injection), before normalising the values for each cytokine relative to maximum values across the groups. The normalised values were used to calculate the relative inhibition where a value of 1 represents complete inhibition and a value of 0 represents no inhibition. Synergy was calculated using the statistical methods described elsewhere herein.
Drug synergy was determined using the Bliss Independence method where the predicted effect of the drug combination is calculated using the equation: […]

A short description of data set [2]: Solubility of formulations for in vivo analysis (visual observation). Format: physicochemical. An excerpt: Cannabidiol (CBD) and hydroxychloroquine (HCQ), were purchased by Pharmacology Discovery Services Taiwan, Ltd. The formulations are summarised in Table 3.

Each structure is given as a SMILES string.

As for `C=C(C)[C@@H]1CCC(C)=C[C@H]1c1c(O)cc(CCCCC)cc1O` [CBD, cannabidiol], in data set [1], the “IL-1β, relative inhibition of cytokine release (BALF)” value is 0.03; the “MCP-1, relative inhibition of cytokine release (BALF)” value is on record as 0.07; the “TNF-α, relative inhibition of cytokine release (BALF)” value came to 0.23; the “CXCL-1, relative inhibition of cytokine release (BALF)” value stood at 0.14.
As to `CCN(CCO)CCCC(C)Nc1ccnc2cc(Cl)ccc12` (stereo not drawn) [HCQ], in data set [2], the Solubil. result is on record as “S”. For the same compound, in data set [1], the “IL-1β, relative inhibition of cytokine release (BALF)” value came out at 0.20; the “MCP-1, relative inhibition of cytokine release (BALF)” value is 0.09; the “TNF-α, relative inhibition of cytokine release (BALF)” value is reported as 0.14; the “CXCL-1, relative inhibition of cytokine release (BALF)” value came out at 0.35.
